In patent US9670213B2, “Pteridine ketone derivative and applications thereof as EGFR, BLK, and FLT3 inhibitor” (EAST CHINA UNIVERSITY OF SCIENCE AND TECHNOLOGY, priority 2012, dated 2017):

Assays:
BLK [1] = biological target: T1, BLK (Homo sapiens (Human), UniProt P51451); assay: Kinase selectivity analysis (Caliper mobility shift assay); assay type: biochemical; details: for inhibition at 1 µM: read-out: % inhibition (1 μM), 1 μM; for inhibition at 10 µM: read-out: % inhibition (10 μM), 10 μM
Method: (§1) Kinase selectivity analysis: kinase selectivity experiment was performed by Shanghai ChemPartner using Caliper assay screening platform. All of kinases and other materials were purchased from commercial companies.
(§2) 3. Preparation of assay plate: 5 μL of solution from each well of the 96-well temporary plate was added into a 384-well plate, and the experiment was independently repeated.
(§3) 5. Caliper readings: experimental data were collected on Caliper.
(§4) 6. Curve fitting: 1) conversion data were replicated from Caliper program. 2) the conversion value was converted into inhibition rate, inhibition rate %=(maximum−conversion value)/(maximum−minimum)*100, wherein “maximum” represents DMSO control, and minimum represents the low control.

FLT3 [2] = biological target: T2, FLT3 (Homo sapiens (Human), UniProt P36888); assay: as above; assay type: biochemical; details: for inhibition at 1 µM: read-out: % inhibition (1 μM), FLT3, 1 μM; for inhibition at 10 µM: read-out: % inhibition (10 μM), FLT3, 10 μM
Method: as §1, §2, §3, §4

IKKB = IKKB (Homo sapiens (Human), UniProt O14920); assay: as above; assay type: biochemical; details: for inhibition at 1 µM: read-out: % inhibition (1 μM), 1 μM; for inhibition at 10 µM: read-out: % inhibition (10 μM), 10 μM
Method: as §1, §2, §3, §4

FGFR3 = FGFR3 (Homo sapiens (Human), UniProt P22607); assay: as above; assay type: biochemical; details: for inhibition at 1 µM: read-out: % inhibition (1 μM), FGFR3, 1 μM; for inhibition at 10 µM: read-out: % inhibition (10 μM), FGFR3, 10 μM
Method: as §1, §2, §3, §4

PDGFRb = PDGFRb (Homo sapiens (Human), UniProt P09619); assay: as above; assay type: biochemical; details: for inhibition at 1 µM: read-out: % inhibition (1 μM), 1 μM; for inhibition at 10 µM: read-out: % inhibition (10 μM), 10 μM
Method: as §1, §2, §3, §4

IGF1R = IGF1R (Homo sapiens (Human), UniProt P08069); assay: as above; assay type: biochemical; details: for inhibition at 1 µM: read-out: % inhibition (1 μM), 1 μM; for inhibition at 10 µM: read-out: % inhibition (10 μM), 10 μM
Method: as §1, §2, §3, §4

P38a = P38a (Homo sapiens (Human), UniProt Q16539); assay: as above; assay type: biochemical; details: for inhibition at 1 µM: read-out: % inhibition (1 μM), 1 μM; for inhibition at 10 µM: read-out: % inhibition (10 μM), 10 μM
Method: as §1, §2, §3, §4

HER2 = HER2 (Homo sapiens (Human), UniProt P04626); assay: as above; assay type: biochemical; details: for inhibition at 1 µM: read-out: % inhibition (1 μM), HER2, 1 μM; for inhibition at 10 µM: read-out: % inhibition (10 μM), HER2, 10 μM
Method: as §1, §2, §3, §4

ABL = ABL (Homo sapiens (Human), UniProt P00519); assay: as above; assay type: biochemical; details: for inhibition at 1 µM: read-out: % inhibition (1 μM), 1 μM; for inhibition at 10 µM: read-out: % inhibition (10 μM), 10 μM
Method: as §1, §2, §3, §4

HER4 = HER4 (Homo sapiens (Human), UniProt Q15303); assay: as above; assay type: biochemical; details: for inhibition at 1 µM: read-out: % inhibition (1 μM), HER4, 1 μM; for inhibition at 10 µM: read-out: % inhibition (10 μM), HER4, 10 μM
Method: as §1, §2, §3, §4

LCK = LCK (Homo sapiens (Human), UniProt P06239); assay: as above; assay type: biochemical; details: for inhibition at 1 µM: read-out: % inhibition (1 μM), 1 μM; for inhibition at 10 µM: read-out: % inhibition (10 μM), 10 μM
Method: as §1, §2, §3, §4

[3] = system: HCC827 (non-small cell lung cancer cells, EGFR del E746-A750); assay: Cell proliferation and growth inhibition analysis; assay type: cell-based; details: Homo sapiens, 72 hours, read-out: Inhibitory activity on cell proliferation (IC50, μM) HCC827
Method: (§5) Cell proliferation was evaluated by MTS assay. Cells were exposed to the process conditions for 72 hours, and the number of cells for each cell line used in the experiment was adjusted according to the absorbance value (absorbance value at 490 nm was 1.3-2.2). 6 concentration gradients (0.1 nM-10 μM) were set for the compounds to be tested, with six parallel controls for each concentration.
(§6) H1975, HCC827, A549, BT474, MCF-7, SK-BR-3 cells were cultured in the corresponding medium. Upon recovery, the cells were passaged at least two times and then used in experiments. Cells in Log phase were trypsinized and resuspended in the medium. H1975 (1000 cells per well), BT474 (1500 cells per well), MCF-7 (1500 cells per well), HCC827 (2000 cells per well), SK-BR-3 (2000 cells per well), A549 (2000 cells per well) were seeded into 96-well plates, the volume was 100 μL, and 6 rows and 7 columns were set. The plate was placed in an incubator at 37° C. of 5% carbon dioxide overnight. Compounds were dissolved in DMSO to obtain the concentration of […], and then gradually diluted to obtain the concentration of compound as […], 0.1 μM, 0.01 μM, 0.001 μM, 0.0001 μM. 2 μL of compound solution was added into 998 μL of medium, and the resulting mixture was thoroughly mixed. 100 μL of mixture was added into 96-well plate. […] After the cells were cultured for 68 hours, 20 μL of MTT (5 mg/mL) was added. After 4 hours, the supernatant was discarded and 150 μL of DMSO was added. The resulting system was shaken for 10 minutes, and the plate was read with Synergy HT (Bio TeK) (OD490). The data was calculated by GraphPad Prism version 4.0, and IC50 was obtained by non-linear regression model using dose-response curve.

[4] = system: H1975 (non-small cell lung cancer cells, EGFR L858R/T790M); assay: Cell proliferation and growth inhibition analysis; assay type: cell-based; details: Homo sapiens, NCI-H1975, 72 hours, read-out: Inhibitory activity on cell proliferation (IC50, μM) H1975
Method: as §5, §6

BLK [5] = biological target: T1, BLK; assay: BLK kinase activity assay (Caliper); assay type: biochemical; details: read-out: Inhibitory activity on kinase (IC50, nM) BLK
Method: (§7) Preparation of 1× kinase matrix buffer and stop buffer.
(§8) Preparation of compound solution. The compound was dissolved in 100% DMSO to a concentration, which was 50 times of the final highest inhibiting-concentration. 100 μL of the compound solution as said above was transferred into wells of 96-well plate. The above compound solution was sequentially diluted to the final desired concentration. In two blank wells of same 96-well plate, 100 μL of 100% DMSO was added as no-compound and no-kinase control, and this plate was used as the original plate.
(§9) Preparation of intermediate plate. 10 μL of compound solution was transferred from the original plate to another 96-well plate as the intermediate plate; 90 μL of 1× kinase buffer was added into each well of the intermediate plate, and the intermediate plate was shaken for 10 min.
(§10) Preparation of assay plate. 5 μL of solution from each well of intermediate plate was added into a 384-well plate, and repeated controls were set.
(§11) Kinase reaction. 2.5× kinase solution and 2.5× peptide solution were prepared. 2.5× kinase solution was transferred into assay plate. Assay plate comprised 5 μL of the compound solution in 10% DMSO. 10 μL of 2.5× kinase solution was added in each well of 384-well assay plate. […] 2.5× peptide solution was added into each well. After incubated at 28° C. for an appropriate time, 25 μL of stop buffer was added to quench the reaction. Experimental data were collected in Caliper. Curve was fitted.

FLT3 [6] = biological target: T2, FLT3; assay: FLT3 kinase activity assay (Caliper); assay type: biochemical; details: read-out: Inhibitory activity on kinase (IC50, nM) FLT3
Method: as §7, §8, §9, §10, §11

T1 sequence (P51451 whole entry): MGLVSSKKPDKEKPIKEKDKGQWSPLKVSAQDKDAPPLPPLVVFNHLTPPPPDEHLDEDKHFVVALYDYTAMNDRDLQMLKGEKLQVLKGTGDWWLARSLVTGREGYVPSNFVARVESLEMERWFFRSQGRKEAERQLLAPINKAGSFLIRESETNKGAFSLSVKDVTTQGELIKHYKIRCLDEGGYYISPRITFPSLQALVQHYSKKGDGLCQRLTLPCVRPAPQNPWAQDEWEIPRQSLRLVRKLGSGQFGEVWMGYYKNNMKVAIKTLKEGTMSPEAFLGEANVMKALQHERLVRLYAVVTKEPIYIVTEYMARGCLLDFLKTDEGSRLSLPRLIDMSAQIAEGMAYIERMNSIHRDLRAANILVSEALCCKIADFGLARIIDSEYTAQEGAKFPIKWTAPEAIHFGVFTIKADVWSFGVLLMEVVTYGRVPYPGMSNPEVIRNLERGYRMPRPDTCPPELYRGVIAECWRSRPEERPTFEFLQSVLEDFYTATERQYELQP
Chain of LCK (P06239 whole entry, species assumed): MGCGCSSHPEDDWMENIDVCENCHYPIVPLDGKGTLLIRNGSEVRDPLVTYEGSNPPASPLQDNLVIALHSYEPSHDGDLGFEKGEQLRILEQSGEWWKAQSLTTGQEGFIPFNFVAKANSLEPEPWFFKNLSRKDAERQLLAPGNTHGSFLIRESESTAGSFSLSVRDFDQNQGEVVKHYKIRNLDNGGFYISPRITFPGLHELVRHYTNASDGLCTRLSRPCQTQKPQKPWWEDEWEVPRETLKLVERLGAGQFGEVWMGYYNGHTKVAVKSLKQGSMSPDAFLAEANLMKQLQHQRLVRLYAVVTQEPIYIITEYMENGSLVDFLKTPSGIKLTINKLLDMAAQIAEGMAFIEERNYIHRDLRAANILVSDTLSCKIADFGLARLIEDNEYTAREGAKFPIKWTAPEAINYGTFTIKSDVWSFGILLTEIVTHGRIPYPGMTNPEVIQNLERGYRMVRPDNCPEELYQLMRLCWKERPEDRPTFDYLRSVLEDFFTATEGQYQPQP
T2 sequence (P36888 27-993): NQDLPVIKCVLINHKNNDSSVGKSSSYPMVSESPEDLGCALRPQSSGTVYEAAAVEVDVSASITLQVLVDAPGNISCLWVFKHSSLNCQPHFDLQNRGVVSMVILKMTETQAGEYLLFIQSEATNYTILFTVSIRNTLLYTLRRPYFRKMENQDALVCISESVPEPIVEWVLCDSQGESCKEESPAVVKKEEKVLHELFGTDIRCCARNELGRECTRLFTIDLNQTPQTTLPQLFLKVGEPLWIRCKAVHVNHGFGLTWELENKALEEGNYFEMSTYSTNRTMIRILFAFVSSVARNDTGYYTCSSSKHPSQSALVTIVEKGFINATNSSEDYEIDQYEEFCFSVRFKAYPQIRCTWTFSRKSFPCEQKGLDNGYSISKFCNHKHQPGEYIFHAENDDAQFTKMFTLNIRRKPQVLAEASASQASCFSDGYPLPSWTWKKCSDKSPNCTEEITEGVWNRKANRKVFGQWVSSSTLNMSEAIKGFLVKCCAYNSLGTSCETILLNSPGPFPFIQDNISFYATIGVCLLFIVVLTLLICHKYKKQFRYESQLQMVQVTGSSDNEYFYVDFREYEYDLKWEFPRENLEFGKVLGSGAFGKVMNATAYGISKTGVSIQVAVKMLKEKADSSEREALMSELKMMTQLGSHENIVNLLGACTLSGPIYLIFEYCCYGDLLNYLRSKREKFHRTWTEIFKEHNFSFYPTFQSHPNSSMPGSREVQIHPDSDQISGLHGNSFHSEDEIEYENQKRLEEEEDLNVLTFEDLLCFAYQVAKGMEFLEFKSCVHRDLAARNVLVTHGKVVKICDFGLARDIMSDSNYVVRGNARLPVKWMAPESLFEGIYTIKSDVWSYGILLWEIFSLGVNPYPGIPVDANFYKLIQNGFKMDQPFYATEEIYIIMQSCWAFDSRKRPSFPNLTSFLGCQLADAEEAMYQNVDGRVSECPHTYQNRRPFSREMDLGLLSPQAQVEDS
Chain of PDGFRb (P09619 33-1106, species assumed): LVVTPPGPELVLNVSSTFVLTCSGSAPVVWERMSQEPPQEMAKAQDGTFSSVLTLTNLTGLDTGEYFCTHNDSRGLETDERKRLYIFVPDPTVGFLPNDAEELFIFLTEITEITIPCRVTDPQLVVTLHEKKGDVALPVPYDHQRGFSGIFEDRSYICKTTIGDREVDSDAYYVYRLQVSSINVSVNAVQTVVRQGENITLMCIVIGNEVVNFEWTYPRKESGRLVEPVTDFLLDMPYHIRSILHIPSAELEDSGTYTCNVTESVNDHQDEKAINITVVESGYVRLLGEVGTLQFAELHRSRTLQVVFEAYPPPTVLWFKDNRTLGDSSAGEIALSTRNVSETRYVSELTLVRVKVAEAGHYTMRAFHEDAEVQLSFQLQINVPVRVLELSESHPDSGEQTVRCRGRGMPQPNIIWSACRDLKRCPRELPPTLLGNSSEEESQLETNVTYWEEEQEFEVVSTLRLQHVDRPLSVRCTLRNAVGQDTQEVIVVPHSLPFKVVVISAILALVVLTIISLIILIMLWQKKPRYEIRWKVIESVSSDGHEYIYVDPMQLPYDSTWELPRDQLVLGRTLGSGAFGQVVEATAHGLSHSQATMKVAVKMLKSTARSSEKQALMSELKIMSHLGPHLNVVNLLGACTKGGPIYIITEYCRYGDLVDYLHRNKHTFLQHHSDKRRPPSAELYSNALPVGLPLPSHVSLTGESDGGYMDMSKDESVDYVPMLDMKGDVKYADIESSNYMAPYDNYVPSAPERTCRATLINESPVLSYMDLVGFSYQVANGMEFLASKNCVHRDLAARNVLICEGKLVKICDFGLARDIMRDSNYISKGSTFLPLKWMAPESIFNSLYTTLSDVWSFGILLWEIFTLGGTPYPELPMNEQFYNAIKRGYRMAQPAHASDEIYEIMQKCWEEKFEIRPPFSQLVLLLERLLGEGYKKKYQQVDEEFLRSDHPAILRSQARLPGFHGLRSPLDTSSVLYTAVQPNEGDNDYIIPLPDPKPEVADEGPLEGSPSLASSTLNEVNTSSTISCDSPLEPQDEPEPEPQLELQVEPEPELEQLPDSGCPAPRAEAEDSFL
Chain of IGF1R (P08069 31-1367, species assumed): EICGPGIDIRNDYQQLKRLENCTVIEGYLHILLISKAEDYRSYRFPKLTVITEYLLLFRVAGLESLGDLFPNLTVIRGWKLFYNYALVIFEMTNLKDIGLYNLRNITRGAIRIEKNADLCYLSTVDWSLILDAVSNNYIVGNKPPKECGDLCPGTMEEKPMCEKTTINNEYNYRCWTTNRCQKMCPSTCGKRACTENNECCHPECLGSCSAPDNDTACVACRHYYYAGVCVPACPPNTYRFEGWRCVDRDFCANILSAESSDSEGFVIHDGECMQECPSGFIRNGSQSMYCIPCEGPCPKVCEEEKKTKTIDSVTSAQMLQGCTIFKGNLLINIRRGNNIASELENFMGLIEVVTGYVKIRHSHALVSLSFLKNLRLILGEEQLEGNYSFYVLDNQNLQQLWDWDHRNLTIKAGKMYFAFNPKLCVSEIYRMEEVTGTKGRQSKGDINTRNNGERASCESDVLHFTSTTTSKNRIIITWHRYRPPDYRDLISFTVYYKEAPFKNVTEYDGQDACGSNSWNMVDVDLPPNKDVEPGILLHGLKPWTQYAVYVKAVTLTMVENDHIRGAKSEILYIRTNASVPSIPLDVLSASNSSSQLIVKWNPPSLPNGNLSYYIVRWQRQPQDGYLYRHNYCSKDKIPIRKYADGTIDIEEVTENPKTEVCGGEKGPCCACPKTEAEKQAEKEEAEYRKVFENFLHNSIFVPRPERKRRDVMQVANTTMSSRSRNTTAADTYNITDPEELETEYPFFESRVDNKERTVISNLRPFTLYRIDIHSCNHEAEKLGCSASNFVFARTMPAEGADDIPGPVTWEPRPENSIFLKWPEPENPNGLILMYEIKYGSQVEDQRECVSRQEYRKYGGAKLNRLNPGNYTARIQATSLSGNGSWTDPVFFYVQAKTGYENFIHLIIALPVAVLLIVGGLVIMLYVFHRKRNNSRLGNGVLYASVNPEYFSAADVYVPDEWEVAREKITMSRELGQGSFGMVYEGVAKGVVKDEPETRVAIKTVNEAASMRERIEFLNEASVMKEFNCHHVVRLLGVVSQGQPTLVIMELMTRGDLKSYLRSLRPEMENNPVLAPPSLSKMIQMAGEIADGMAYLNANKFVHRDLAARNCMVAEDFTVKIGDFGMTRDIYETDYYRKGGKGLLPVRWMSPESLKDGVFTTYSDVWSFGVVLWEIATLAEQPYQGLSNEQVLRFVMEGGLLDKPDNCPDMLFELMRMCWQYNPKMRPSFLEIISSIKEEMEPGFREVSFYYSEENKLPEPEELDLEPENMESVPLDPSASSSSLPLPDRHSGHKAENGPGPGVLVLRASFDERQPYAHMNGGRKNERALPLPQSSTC
Chain of P38a (Q16539 whole entry): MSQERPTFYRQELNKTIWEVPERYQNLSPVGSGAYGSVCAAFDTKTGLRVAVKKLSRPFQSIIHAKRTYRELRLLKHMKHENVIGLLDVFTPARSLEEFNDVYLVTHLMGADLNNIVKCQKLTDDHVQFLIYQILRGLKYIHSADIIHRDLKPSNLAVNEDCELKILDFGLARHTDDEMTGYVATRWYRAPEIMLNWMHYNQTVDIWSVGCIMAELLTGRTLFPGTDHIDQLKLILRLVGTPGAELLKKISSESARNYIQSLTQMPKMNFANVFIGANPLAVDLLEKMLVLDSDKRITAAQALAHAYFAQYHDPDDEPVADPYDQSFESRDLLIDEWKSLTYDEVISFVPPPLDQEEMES

Row | inhibition at 1 µM (BLK [1]) [%] | inhibition at 10 µM (BLK [1]) [%] | inhibition at 1 µM (FLT3 [2]) [%] | inhibition at 10 µM (FLT3 [2]) [%] | inhibition at 1 µM (IKKB) [%] | inhibition at 10 µM (IKKB) [%] | inhibition at 1 µM (FGFR3) [%] | inhibition at 10 µM (FGFR3) [%] | inhibition at 1 µM (PDGFRb) [%] | inhibition at 10 µM (PDGFRb) [%] | inhibition at 1 µM (IGF1R) [%] | inhibition at 10 µM (IGF1R) [%] | inhibition at 1 µM (P38a) [%] | inhibition at 10 µM (P38a) [%] | inhibition at 1 µM (HER2) [%] | inhibition at 10 µM (HER2) [%] | inhibition at 1 µM (ABL) [%] | inhibition at 10 µM (ABL) [%] | inhibition at 1 µM (HER4) [%] | inhibition at 10 µM (HER4) [%] | Compound | also measured
1 | 99 | 100 | 82 | 99 | 9.4 | 2 | 14 | 33 | 42 | 84 | 21 | 36 | 2.8 | 21 | 97 | 98 | 11 | 39 | 60 | 72 | C=CC(=O)Nc1cccc(-n2c(=O)cnc3cnc(Nc4ccc(N5CCN(C)CC5)cc4)nc32)c1 [Compound 020, N-(3-(2-(4-(4-methyl-1-piperazinyl)-phenylamino)-7-oxo-8(7H)-pteridin-yl)phenyl) acrylamide] | inhibition at 1 µM (LCK): 18%; inhibition at 10 µM (LCK): 73%; IC50 [3]: 0.002 µM; IC50 [4]: 0.043 µM; IC50 (BLK [5]): < 14 nM; IC50 (FLT3 [6]): 322 nM
2 | 85 | 99 | 60 | 91 | -3.3 | -4.3 | 11 | 13 | 14 | 61 | 15 | 37 | -5.6 | 1.2 | 89 | 100 | 5.8 | 13 | 60 | 77 | C=CC(=O)Nc1cccc(-n2c(=O)cnc3cnc(Nc4ccc(N5CCN(C)CC5)cc4OC)nc32)c1 [Compound 032, N-(3-(2-(2-methoxy-4-(4-methyl-1-piperazinyl)-phenylamino)-7-oxo-8(7H)-pteridin-yl)phenyl)acrylamide] | inhibition at 1 µM (LCK): 14%; inhibition at 10 µM (LCK): 54%; IC50 [3]: 0.004 µM; IC50 [4]: 0.038 µM; IC50 (BLK [5]): 463 nM; IC50 (FLT3 [6]): 1170 nM
